Tested on: tactile allodynia induced in a hind paw by surgical lesion of the sciatic nerve
Test: Anti-allodynic effect in the spared nerve injury (SNI) model of neuropathic pain in mice after oral administration
Format: in vivo, male C57B6 mice
Details: for Mean PWT (paw withdrawal threshold) ± SEM / DeltaAUC1 h-6 h of PWL (mean ± SEM): N=4; for Statistical evaluation vs. control (DeltaAUC1 h-6 h): 1-way ANOVA & Dunnett; for DeltaAUC1 h-6 h of PWL (mean ± SEM): AUC contralateral minus ipsilateral paws, 1 h to 6 h after administration
Method: In this in vivo mouse model of chronic neuropathic pain the effect on tactile allodynia, a painful sensation after a normally not painful mechanical stimulus, which had been induced in a hind paw by surgical lesion of the sciatic nerve, was determined by measuring the paw withdrawal threshold (PWT), i.e. the exerted force (expressed in grams) at which the mouse withdrew its hind paw.
Tactile allodynia was determined at both hind paws, i.e. ipsilateral and contralateral to the lesion if determined subsequent to surgery, with the automatic von Frey test in which the plantar skin of the hind paws was exposed to a pressure stimulus of increasing intensity up to 5 grams using a dump needle stick. The force in grams at which the animal responded withdrawal of the hind paw (paw withdrawal threshold, PWT), was used as a measure of tactile allodynia.
Two test groups and one control group of animals were used each consisting of four male C57B6 mice. In all groups, baseline PWT values (BL) were determined before surgery. For induction of neuropathic pain then, under general anesthesia, in all groups the two major branches of the sciatic nerve were ligated and transected, with the sural nerve left intact (spared nerve injury, SNI). In this model of neuropathic pain, tactile allodynia developed completely within two days after nerve transection in the hind paw ipsilateral to the lesion and remained stable in the control group over the complete observation period of the experiment.
7 days after surgery, immediately before administration of the test compound, i.e. at the time 0 h, in all groups PWT values were determined for the injured ipsilateral hind paw and the non-injured contralateral hind paw. Then either the test compound or vehicle was administered to the animals orally by gavage. In the test groups, mice received 100 μl/10 g body weight of a suspension of the test compound in vehicle MC/T80 comprising 0.3 mg/ml or 3 mg/ml (prepared as described in pharmaceutical example A) for attaining a dosage of 3 mg/kg body weight and 30 mg/kg body weight, respectively. In the control group, mice analogously received 100 μl/10 g body weight of vehicle MC/T80. 1 h, 2 h, 4 h and 6 h after administration, PWT values were determined.
The given PWT values (in grams) are the mean±SEM (standard error of the mean) of the PWT measurements performed with the ipsilateral hind paw and the contralateral hind paw, respectively, of each animal of the indicated group (N (number of animals)=4) at the time points 0 h (i.e. before administration of test compound or vehicle) and 1 h, 2 h, 4 h and 6 h after administration of test compound or vehicle, as well as the baseline PWT values (BL) determined before surgery.
For the statistical analysis, PWT values were used in two ways, first with a 2-way ANOVA test based on the PWT values and second with a 1-way ANOVA test based on area under the curve (AUC) values for the time period of 6 h after application of the test compound or vehicle. A repeated measures 2-way ANOVA test (factor treatment and repeated measures factor time) was performed on PWT measurements. In case the interaction (treatment×time) was statistically significant, a Winer complementary analysis was done to investigate the effect of treatment for each time point. A Dunnett's test was used to study the potential differences between the control group and the test groups.
As a quantitative measure of the efficacy of a test compound over an extended time period, the area under the curve (AUC) of the individual PWT values for the time period from 1 h to 6 h after administration of test compound or vehicle (AUC1 h-6 h) was determined for the ipsilateral paws of each group and the obtained value subtracted from the value determined for the contralateral paws of the same group to give DeItaAUC1 h-6 h values for each group. […]

Structure (SMILES): O=C(Nc1ccc(S(=O)(=O)N2CCOCC2)cc1)c1cc(Cl)ccc1NS(=O)(=O)c1ccc(Cl)s1.[Na] [Example 94, 5-Chloro-2-(5-chloro-thiophene-2-sulfonylamino)-N-(4-(morpholine-4-sulfonyl)-phenyl)-benzamide sodium salt]
- Mean PWT (paw withdrawal threshold) ± SEM (3 mg/kg body weight group, BL baseline before surgery): 4.75 grams
- Mean PWT (paw withdrawal threshold) ± SEM (3 mg/kg body weight group, injured ipsilateral paw, 0 h (before administration)): 1.58 grams
- Mean PWT (paw withdrawal threshold) ± SEM (3 mg/kg body weight group, non-injured contralateral paw, 0 h (before administration)): 4.84 ± 0.11 grams
- Statistical evaluation vs. control (DeltaAUC1 h-6 h) (3 mg/kg body weight oral): *** (significant, p < 0.0001 (ANOVA & Dunnett))
- DeltaAUC1 h-6 h of PWL (mean ± SEM) (3 mg/kg body weight oral): 4.60 ± 1.20
- Anti-allodynic effect on PWT vs. control (2-way ANOVA, Dunnett) (3 mg/kg body weight oral, from 1 h to 4 h after administration): Statistically significant ant-allodynic effects
- Mean PWT (paw withdrawal threshold) ± SEM (3 mg/kg body weight oral, injured ipsilateral paw, 1 h after administration): 2.96 grams
- Mean PWT (paw withdrawal threshold) ± SEM (3 mg/kg body weight oral, injured ipsilateral paw, 2 h after administration): 4.64 ± 0.11 grams
- Mean PWT (paw withdrawal threshold) ± SEM (3 mg/kg body weight oral, injured ipsilateral paw, 4 h after administration): 4.12 ± 0.17 grams
- Mean PWT (paw withdrawal threshold) ± SEM (3 mg/kg body weight oral, injured ipsilateral paw, 6 h after administration): 2.50 ± 0.40 grams
- Mean PWT (paw withdrawal threshold) ± SEM (3 mg/kg body weight oral, non-injured contralateral paw, 1 h after administration): 4.66 ± 0.14 grams
- Mean PWT (paw withdrawal threshold) ± SEM (3 mg/kg body weight oral, non-injured contralateral paw, 2 h after administration): 4.95 ± 0.02 grams
- Mean PWT (paw withdrawal threshold) ± SEM (3 mg/kg body weight oral, non-injured contralateral paw, 4 h after administration): 4.61 ± 0.13 grams
- Mean PWT (paw withdrawal threshold) ± SEM (3 mg/kg body weight oral, non-injured contralateral paw, 6 h after administration): 4.82 grams
- Mean PWT (paw withdrawal threshold) ± SEM (30 mg/kg body weight group, BL baseline before surgery): 4.70 grams
- Mean PWT (paw withdrawal threshold) ± SEM (30 mg/kg body weight group, injured ipsilateral paw, 0 h (before administration)): 1.91 grams
- Mean PWT (paw withdrawal threshold) ± SEM (30 mg/kg body weight group, non-injured contralateral paw, 0 h (before administration)): 4.69 ± 0.23 grams
- Statistical evaluation vs. control (DeltaAUC1 h-6 h) (30 mg/kg body weight oral): *** (significant, p < 0.0001 (ANOVA & Dunnett))
- DeltaAUC1 h-6 h of PWL (mean ± SEM) (30 mg/kg body weight oral): 1.52 ± 0.94
- Anti-allodynic effect on PWT vs. control (2-way ANOVA, Dunnett) (30 mg/kg body weight oral, from 1 h to 6 h after administration): Statistically significant ant-allodynic effects
- Mean PWT (paw withdrawal threshold) ± SEM (30 mg/kg body weight oral, injured ipsilateral paw, 1 h after administration): 3.70 grams
- Mean PWT (paw withdrawal threshold) ± SEM (30 mg/kg body weight oral, injured ipsilateral paw, 2 h after administration): 4.66 ± 0.10 grams
- Mean PWT (paw withdrawal threshold) ± SEM (30 mg/kg body weight oral, injured ipsilateral paw, 4 h after administration): 4.51 ± 0.17 grams
- Mean PWT (paw withdrawal threshold) ± SEM (30 mg/kg body weight oral, injured ipsilateral paw, 6 h after administration): 4.24 ± 0.08 grams
- Mean PWT (paw withdrawal threshold) ± SEM (30 mg/kg body weight oral, non-injured contralateral paw, 1 h after administration): 4.82 ± 0.10 grams
- Mean PWT (paw withdrawal threshold) ± SEM (30 mg/kg body weight oral, non-injured contralateral paw, 2 h after administration): 4.84 ± 0.10 grams
- Mean PWT (paw withdrawal threshold) ± SEM (30 mg/kg body weight oral, non-injured contralateral paw, 4 h after administration): 4.70 ± 0.19 grams
- Mean PWT (paw withdrawal threshold) ± SEM (30 mg/kg body weight oral, non-injured contralateral paw, 6 h after administration): 4.55 grams
- Improvement of DeltaAUC1 h-6 h over vehicle control (1-way ANOVA) (both dosages, 3 mg/kg and 30 mg/kg body weight oral): significant improvement over the control group

From patent US20110021505A1, “Use of sulfonyl-substituted 2-sulfonylaminobenzoic acid N-phenylamides in the treatment of pain” (SANOFI-AVENTIS DEUTSCHLAND GMBH, priority 2007, published 2011)
